According to patent US9856304B2, “Peptide and application thereof” (Saitama Medical University, priority 2013, dated 2018):

Tests used:
[1] = system: MIN6 cells (pancreatic β cell line); test: EdU cell proliferation assay, growth promotion of pancreatic β cells (2), versus culture supernatants; assay type: cell-based; conditions: betagenin 1 nM, compared with IBCAP culture supernatant and Mock culture supernatant (0.5 μL/well), Mock taken as 1.0, FIG. 4
Procedure: (§1) MIN6 cells provided by Dr. Miyazaki at Osaka University were used as a pancreatic β cell line. MIN6 cells were maintained in a DMEM culture medium with added 15% (v/v) of FBS.
(§2) A DMSO solution was prepared so that the concentration of chemically synthesized betagenin was 97% of purity, as a pancreatic hormone-producing cell growth-promoting agent.
First, HEK293T cells passaged in a DMEM culture medium with added 5% FBS and antibiotics (penicillin 100 U/mL, streptomycin […]) were plated on a 10 cm dish at 1×10^6 cells. On the next day, HEK293T cells were transfected with an expression vector (pCAGGS-IBCAP) constructed by ligating the gene encoding the IBCAP (=Betagenin) set forth in SEQ ID NO: 2 (which is corresponds to human TM4SF20, and hereinafter referred to “IBCAP.”) using FuGEN6 (Roche) to overexpression of IBCAP. The culture medium was replaced with an Opti-MEM culture medium 24 hours after that, and a culture supernatant was then collected another 24 hours after that, which was then used as an IBCAP culture supernatant for the subsequent experiments. […]
The incorporated EdU was visualized as red fluorescence using Alexa Flour™ 594, and observed with a fluorescence microscope (Carl Zeiss).

[2] = system: MIN6 cells (pancreatic β cell line); test: EdU cell proliferation assay, growth promotion of pancreatic β cells (3), versus Peptides A, B, C; assay type: cell-based; conditions: betagenin 1 nM compared with Peptides A, C at 3 nM or 5 nM, FIG. 5
Procedure: as §1, §2
Further, for comparison, Peptides A, B, C consisting of the amino acid sequences set forth in SEQ ID Nos: 4 to 6, respectively, were prepared by chemical synthesis.
First, MIN6 cells were plated on a collagen-coated 8-well slide chamber (BD Falcon, Product Number 354630) at a cell density of 1×10^4 cells/well for confirming the growth promotion of pancreas β cells. After 24 hours, the culture medium was replaced with a DMEM culture medium with added 0.5% (v/v) of FBS, and then serum starvation was performed for 72 hours. Note that the culture medium was replaced with a fresh culture medium 48 hours after the start of serum starvation. […]
The incorporated EdU was visualized as red fluorescence using Alexa Flour™ 594, and observed with a fluorescence microscope (Carl Zeiss). […] Note that a red fluorescence part representing a region where EdU was taken up will be confirmed as a dark black part due to the operations of black and white processing and black and white inversion.

betagenin: chemically synthesized peptide of SEQ ID NO: 1, fragment of human TM4SF20 from Position 170 to Position 229 (WRASSFHFDSEENKHRLIHFSVFLGLLLVGILEVLFGLSQIVIGFLGCLCGVSKRRSQIV; Peptide Sequence betagenin; listed as Homo sapiens)
relative EdU fluorescence intensity [1]: significantly increased | EdU uptake in fluorescence microscope images (dark black parts) [2]: significantly darker black parts
